Results published in patent EP4696688A1, “BENZO-FUSED RING COMPOUND INHIBITOR, AND PREPARATION METHOD THEREFOR AND USE THEREOF” (Shanghai Hansoh Biomedical Co., Ltd., priority 2023, dated 2024).

Columns and labels:
human CYP11B1 = target: T1, human CYP11B1 (Homo sapiens, UniProt P15538); assay: G-402 cell enzyme experiment, CYP11B1 (cortisol product, HTRF), selectivity versus CYP11B2; assay type: cell-based; conditions: human selective factor: ratio of CYP11B1 EC50 to CYP11B2 EC50; G-402 cells
T1 construct: The main elements of an expression plasmid include ORF of human CYP11B1 or human CYP11B2; expressed in transfected cells
T1 sequence (P15538 25-503): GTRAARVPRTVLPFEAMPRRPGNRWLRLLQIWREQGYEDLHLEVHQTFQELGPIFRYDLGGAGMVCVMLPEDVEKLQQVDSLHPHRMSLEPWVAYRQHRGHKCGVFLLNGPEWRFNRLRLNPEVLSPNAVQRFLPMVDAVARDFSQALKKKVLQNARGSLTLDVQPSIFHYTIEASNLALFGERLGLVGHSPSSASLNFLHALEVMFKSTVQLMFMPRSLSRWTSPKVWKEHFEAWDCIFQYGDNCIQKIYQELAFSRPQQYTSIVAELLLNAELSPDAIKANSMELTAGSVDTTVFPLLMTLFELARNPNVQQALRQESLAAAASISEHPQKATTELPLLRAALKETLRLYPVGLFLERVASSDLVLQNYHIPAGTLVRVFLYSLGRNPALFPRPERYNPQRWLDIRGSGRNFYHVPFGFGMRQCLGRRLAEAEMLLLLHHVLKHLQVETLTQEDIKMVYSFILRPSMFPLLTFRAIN
Source text: (§1) G-402 cell line was used as host cells to express (by transient or stable transfection) an enzyme of the human CYP11 family. Specifically, G-402 cell lines stably expressing human CYP11B1 and human CYP11B2 were established respectively. […] Therefore, the G-402 cell line is very suitable as a host cell for the ectopic expression of an enzyme of the CYP11 family.
(§2) The G-402 cell line, originally derived from renal myoblastoma, can be obtained from ATCC (CRL-1440). The main elements of an expression plasmid include ORF of human CYP11B1 or human CYP11B2, a suitable promoter (CMV promoter), and a suitable resistance marker (neomycin). The expression plasmid was transfected into G-402 cells by standard technology, and a specific antibiotic was then given for screening. The activity of the enzyme expressed by the screened monoclonal cells was assessed by 11-deoxycorticosterone (substrate of CYP11B2) and 11-deoxycortisol (substrate of CYP11B1).
(§3) The G-402 cells expressing CYP11 plasmid, as established in the above solution, were cultured in McCoy's 5a Modified Medium (ATCC Catalog No. 30-2007) containing 10% FCS and 400 µg/ml G418 in an incubator at 37°C and 5% CO2. A cell enzyme experiment was carried out using DMEM/F12 medium containing 2.5% charcoal-treated FBS and an appropriate concentration of a substrate (1 µM 11-deoxycorticosterone or 1 µM 11-deoxycortisol). In order to detect the activity of the enzyme in the cells, the cells were plated in a 96-well plate and incubated for 16 h. The supernatant was then transferred and analyzed for the concentration of the expected product (the product of CYP11B2: aldosterone; the product of CYP11B1: cortisol). The concentrations of these products were determined by an HTRF experiment of CisBio.
(§4) In the cell enzyme experiment, the inhibitory effect of the test compound on the generated product can reflect the inhibitory effect thereof on the enzyme. The dose-dependent inhibition of the enzyme activity by the compound was calculated by plotting the concentration of the test compound (x axis) versus the measured product level (y axis). Then, the original data was fitted to a 4-parameter sigmoidal function (Morgan-Mercer-Flodin, MMF model) by least square method: y = (AB + Cx^D) / (B + x^D) in which A is the maximum y value, B is the EC50 determined by XLFit, C is the minimum y value, and D is the slope value. The maximum value A corresponds to the amount of the product detected without an inhibitor, and C corresponds to the amount of the product detected in the G402 cells expressing an empty plasmid.
(§5) The EC50 value of the compound of the present invention was determined by the above G-402 experiment system. The activity of the CYP11B2 enzyme was determined under the conditions of 1 µM 11-deoxycorticosterone and a variable amount of the inhibitor, and the activity of the CYP11B1 enzyme was determined under the conditions of 1 µM 11-deoxycortisol and a variable amount of the inhibitor.

human CYP11B2 = target: T2, human CYP11B2 (Homo sapiens, UniProt P19099); assay: G-402 cell enzyme experiment, CYP11B2 (aldosterone product, HTRF); assay type: cell-based; conditions: G-402 cells stably expressing human CYP11B2, 1 µM 11-deoxycorticosterone, 16 h
T2 construct: The main elements of an expression plasmid include ORF of human CYP11B1 or human CYP11B2; expressed in transfected cells
T2 sequence (P19099 25-503): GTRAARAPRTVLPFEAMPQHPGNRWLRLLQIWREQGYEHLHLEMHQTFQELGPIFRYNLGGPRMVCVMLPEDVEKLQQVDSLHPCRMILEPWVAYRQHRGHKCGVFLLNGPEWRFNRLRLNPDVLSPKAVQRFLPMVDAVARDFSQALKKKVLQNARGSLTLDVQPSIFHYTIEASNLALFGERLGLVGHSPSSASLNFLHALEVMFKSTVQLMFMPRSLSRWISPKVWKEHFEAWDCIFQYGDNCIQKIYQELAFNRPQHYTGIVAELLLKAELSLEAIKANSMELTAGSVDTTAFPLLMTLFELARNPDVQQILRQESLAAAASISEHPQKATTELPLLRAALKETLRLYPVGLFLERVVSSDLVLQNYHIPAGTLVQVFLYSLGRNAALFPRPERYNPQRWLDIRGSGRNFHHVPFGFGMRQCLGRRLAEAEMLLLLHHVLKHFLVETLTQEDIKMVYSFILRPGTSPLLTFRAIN
Source text: as §1, §2, §3, §4, §5

Structure (SMILES)	hsF (human CYP11B1)	EC50 (human CYP11B2)
COc1ccc2cc(-c3cncc(N4CC5(CN(C(=O)C6(F)CC6)C5)C4)c3)ccc2n1 [Example 94, (1-fluorocyclopropyl)(6-(5-(2-methoxyquinolin-6-yl)pyridin-3-yl)-2,6-diazaspiro[3.3]heptan-2-yl)methanone]	350x	0.013 µM
COc1ccc2cc(-c3cncc(N4CC5(CN(C(=O)c6cnn(C7CC7)c6)C5)C4)c3)ccc2n1 [Example 43, (1-cyclopropyl-1H-pyrazol-4-yl)(6-(5-(2-methoxyquinolin-6-yl)pyridin-3-yl)-2,6-diazaspiro[3.3]heptan-2-yl)methanone]	> 4023x	0.05 µM
COc1ccc2cc(-c3cncc(N4CC5(CN(C(=O)C6(O)CC6)C5)C4)c3)ccc2n1 [Example 97, (1-hydroxycyclopropyl)(6-(5-(2-methoxyquinolin-6-yl)pyridin-3-yl)-2,6-diazaspiro[3.3]heptan-2-yl)methanone]	971x	0.011 µM
[2H]C([2H])([2H])N(C(=O)c1cnn(C)c1)C1CCN(c2cncc(-c3ccc4nc(OC)ccc4c3)c2)CC1 [Example 72, N-(1-(5-(2-methoxyquinolin-6-yl)pyridin-3-yl)piperidin-4-yl)-1-methyl-N-(methyl-d3)-1H-pyrazole-4-carboxamide]	–	0.01 µM
COc1ccc2cc(-c3cncc(N4CC5(CCN(C(=O)c6cnn(C)c6)C5)C4)c3)ccc2n1 [Example 51, (2-(5-(2-methoxyquinolin-6-yl)pyridin-3-yl)-2,6-diazaspiro[3.4]octane-6-yl)(1-methyl-1H-pyrazol-4-yl)methanone]	157x	0.024 µM
COc1ccc2cc(-c3cncc(N4CC5(CN(C(=O)C6(C#N)CC6)C5)C4)c3)ccc2n1 [Example 81, 1-(6-(5-(2-methoxyquinolin-6-yl)pyridin-3-yl)-2,6-diazaspiro[3.3]heptane-2-carbonyl)cyclopropane-1-carbonitrile]	261x	0.005 µM
CCC(=O)NC1CCCc2c(-c3cc(F)c4c(c3)CCc3nncn3-4)cncc21 (stereo not drawn) [Example 37, N-(4-(9-fluoro-4,5-dihydro-[1,2,4]triazolo[4,3-a]quinolin-7-yl)-5,6,7,8-tetrahydroisoquinolin-8-yl)propanamide]	–	0.035 µM
COc1ccc2cc(-c3cncc(NC4CN(C(=O)c5cnn(C6CC6)c5)C4)c3)ccc2n1 [Example 54, (1-cyclopropyl-1H-pyrazol-4-yl)(3-((5-(2-methoxyquinolin-6-yl)pyridin-3-yl)amino)azetidin-1-yl)methanone]	404x	0.021 µM
COc1ccc2cc(-c3cncc(N4CC5(CC(N6CCc7cc(C)ncc7C6=O)C5)C4)c3)ccc2n1 [Example 108, 2-(2-(5-(2-Methoxyquinolin-6-yl)pyridin-3-yl)-2-azaspiro[3.3]heptan-6-yl)-6-methyl-3,4-dihydro-2,7-diazanaphthalen-1(2H)-one]	> 2817x	0.071 µM
Cc1ccc(C(=O)N2CC3(C2)CN(c2cncc(-c4ccc5c(c4)sc(=O)n5C)c2)C3)cn1 [Example 101, 3-methyl-6-(5-(6-(6-methylnicotinoyl)-2,6-diazaspiro[3.3]heptan-2-yl)pyridin-3-yl)benzo[d]thiazol-2(3H)-one]	> 4651x	0.043 µM
COc1ccc2cc(-c3cncc(N4CC5(CC(NC(=O)c6cnn(C)c6)C5)C4)c3)ccc2n1 [Example 63, N-(2-(5-(2-methoxyquinolin-6-yl)pyridin-3-yl)-2-azaspiro[3.3]heptan-6-yl)-1-methyl-1H-pyrazole-4-carboxamide]	1912x	0.006 µM
CCS(=O)(=O)N1CC(Oc2cncc(-c3ccc4c(c3)sc(=O)n4C)c2)C1 [Example 90, 6-(5-((1-(ethylsulfonyl)azetidin-3-yl)oxy)pyridin-3-yl)-3-methylbenzo[d]thiazol-2(3H)-one]	–	0.023 µM
CCC(=O)N[C@@H]1CCCc2c(-c3ccc4c(c3)sc(=O)n4C)cncc21 [Example 65, (R)-N-(4-(3-methyl-2-oxo-2,3-dihydrobenzo[d]thiazol-6-yl)-5,6,7,8-tetrahydroisoquinolin-8-yl)propanamide]	–	0.089 µM
COc1ccc2cc(-c3cncc(N4CCN(C(=O)c5cnn(C)c5)CC4)c3)ccc2n1 [Example 50, (4-(5-(2-methoxyquinolin-6-yl)pyridin-3-yl)piperazin-1-yl)(1-methyl-1H-pyrazol-4-yl)methanone]	–	0.008 µM

Second part, the molecule after the results:

hsF (human CYP11B1)	EC50 (human CYP11B2)	Structure (SMILES)
–	0.024 µM	CCC(=O)NC1CCCc2c(-c3ccc4nc(OC)ccc4c3)cncc21 (stereo not drawn) [Example 14-A]
–	0.005 µM	CCS(=O)(=O)N1CC(Oc2cncc(-c3ccc4nc(OC)ccc4c3)c2)C1 [Example 22, 6-(5-((1-(ethylsulfonyl)azetidin-3-yl)oxy)pyridin-3-yl)-2-methoxyquinoline]
–	0.032 µM	CCC(=O)NC1CC2(C1)CN(c1cncc(-c3ccc4nc(OC)ccc4c3)c1)C2 [Example 64, N-(2-(5-(2-methoxyquinolin-6-yl)pyridin-3-yl)-2-azaspiro[3.3]heptan-6-yl)propanamide]
–	0.033 µM	CCC(=O)Nc1cccc2c(-c3ccc4nc(OC)ccc4c3)cncc12 [Example 68, N-(4-(2-methoxyquinolin-6-yl)isoquinolin-8-yl)propanamide]
159x	0.007 µM	COc1ccc2cc(-c3cncc(NC4CCN(C(=O)c5cnn(C)c5)CC4)c3)ccc2n1 [Example 56, (4-((5-(2-methoxyquinolin-6-yl)pyridin-3-yl)amino)piperidin-1-yl)(1-methyl-1H-pyrazol-4-yl)methanone]
2766x	0.026 µM	CCC(=O)N1CC2(C1)CN(c1cncc(-c3ccc4nc(OC)ccc4c3)c1)C2 [Example 36, 1-(6-(5-(2-methoxyquinolin-6-yl)pyridin-3-yl)-2,6-diazaspiro[3.3]heptan-2-yl)propan-1-one]
–	0.004 µM	COc1ccc2cc(-c3cncc(N4CCC(NC(=O)c5cnn(C)c5)CC4)c3)ccc2n1 [Example 71, N-(1-(5-(2-methoxyquinolin-6-yl)pyridin-3-yl)piperidin-4-yl)-1-methyl-1H-pyrazole-4-carboxamide]
–	0.017 µM	COCC(=O)N1CC2(C1)CN(c1cncc(-c3ccc4nc(OC)ccc4c3)c1)C2 [Example 80, 2-methoxy-1-(6-(5-(2-methoxyquinolin-6-yl)pyridin-3-yl)-2,6-diazaspiro[3.3]heptan-2-yl)ethan-1-one]
